Assay results reported in patent US10765114B2, “4-amino-6-(pyridyl and 2-substitutedphenyl)-picolinates and 6-amino-2-(pyridyl and 2-substitutedphenyl)-pyrimidine-4-carboxylates and their use as herbicides” (Dow AgroSciences LLC, priority 2013, dated 2020).
Where two headings read alike, the source gives them in different places.

How the values were obtained:
[1] = system: Key Broadleaf Weed and Crop Species; experiment: Post-Emergent Test II (Table 5); type: in vivo; details: post-emergence, 336 h; for pest or weed control at 70 g/ha: application rate 70 (kg ai/ha; footnote: g ai/ha); for pest or weed control at 140 g/ha: application rate 140 (kg ai/ha; footnote: g ai/ha)
How it was run: (§1)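 Visual injury ratings (0 = no injury, 100 = complete kill) were taken 14 days after treatment relative to untreated plants. Seedlings at the first or second true leaf stage received an overhead spray at 187 L/ha, and solvent-blank sprayed plants served as controls.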

[2] = system: Key Grass and Sedge Weeds as well as Grass Crops; experiment: Post-Emergent Test II (Table 6); type: in vivo; details: post-emergence, 336 h, 14 days after application; for pest or weed control at 70 g/ha: 70 g ai/ha; for pest or weed control at 140 g/ha: 140 g ai/ha
How it was run: as §1

[3] = Abutilon theophrasti, ABUTH: velvetleaf (Abutilon theophrasti), read-out: Visual Growth Reduction (%) 14 Days After Application ABUTH
[4] = Amaranthus retroflexus, AMARE: redroot pigweed (Amaranthus retroflexus), read-out: Visual Growth Reduction (%) 14 Days After Application AMARE
[5] = Brassica napus, BRSSS: oilseed rape, canola (Brassica napus), read-out: Visual Growth Reduction (%) 14 Days After Application BRSSS
[6] = Chenopodium album, CHEAL: lambsquarters (Chenopodium album), read-out: Visual Growth Reduction (%) 14 Days After Application CHEAL
[7] = Euphorbia heterophylla, EPHHL: wild poinsettia (Euphorbia heterophylla), read-out: Visual Growth Reduction (%) 14 Days After Application EPHHL
[8] = Helianthus annuus, HELAN: sunflower (Helianthus annuus), read-out: Visual Growth Reduction (%) 14 Days After Application HELAN
[9] = Viola tricolor, VIOTR: wild pansy (Viola tricolor), read-out: Visual Growth Reduction (%) 14 Days After Application VIOTR
[10] = CYPSS, read-out: Visual Growth Reduction (%) 14 Days After Application CYPSS
[11] = DIGSA: crabgrass (Digitaria sanguinalis), read-out: Visual Growth Reduction (%) 14 Days After Application DIGSA
[12] = ECHSS, read-out: Visual Growth Reduction (%) 14 Days After Application ECHSS
[13] = ORYSS (crop), read-out: Visual Growth Reduction (%) 14 Days After Application ORYSS
[14] = SETFA: giant foxtail (Setaria faberi), read-out: Visual Growth Reduction (%) 14 Days After Application SETFA
[15] = SORVU: grain sorghum (Sorghum vulgare), read-out: Visual Growth Reduction (%) 14 Days After Application SORVU
[16] = TRZSS (crop), read-out: Visual Growth Reduction (%) 14 Days After Application TRZSS
[17] = ZEAMX: maize, corn (Zea mays), read-out: Visual Growth Reduction (%) 14 Days After Application ZEAMX

Nc1cc(-c2ccc(Cl)nc2Cl)nc(C(=O)O)c1Cl [Compound 1, 4-amino-2′,5,6′-trichloro-[2,3′-bipyridine]-6-carboxylic acid] showed a pest or weed control at 70 g/ha [1, 3] of 30 to 44%, a pest or weed control at 140 g/ha [1, 3] of 75 to 84% and a pest or weed control at 70 g/ha [1, 4] of 95 to 100%. For the same molecule, the pest or weed control at 140 g/ha [1, 4] was 95 to 100%, the pest or weed control at 70 g/ha [1, 5] was 85 to 94% and the pest or weed control at 140 g/ha [1, 5] was 95 to 100%. It also gave a pest or weed control at 70 g/ha [1, 6] of 85 to 94%, a pest or weed control at 140 g/ha [1, 6] of 95 to 100% and a pest or weed control at 70 g/ha [1, 7] of 0 to 29%. The pest or weed control at 140 g/ha [1, 7] was 0 to 29%, the pest or weed control at 70 g/ha [1, 8] was 75 to 84% and the pest or weed control at 140 g/ha [1, 8] was 85 to 94%. It also gave a pest or weed control at 70 g/ha [1, 9] of 0 to 29%, a pest or weed control at 140 g/ha [1, 9] of 30 to 44% and a pest or weed control at 70 g/ha [2, 10] of 0 to 29%. The pest or weed control at 140 g/ha [2, 10] was 0 to 29%, the pest or weed control at 70 g/ha [2, 11] was 0 to 29% and the pest or weed control at 140 g/ha [2, 11] was 0 to 29%. For the same molecule, the pest or weed control at 70 g/ha [2, 12] was 0 to 29%, the pest or weed control at 140 g/ha [2, 12] was 0 to 29% and the pest or weed control at 70 g/ha [2, 13] was 0 to 29%. For the same molecule, the pest or weed control at 140 g/ha [2, 13] was 0 to 29%, the pest or weed control at 70 g/ha [2, 14] was 0 to 29% and the pest or weed control at 140 g/ha [2, 14] was 0 to 29%. For the same molecule, the pest or weed control at 70 g/ha [2, 15] was 0 to 29%, the pest or weed control at 140 g/ha [2, 15] was 0 to 29% and the pest or weed control at 70 g/ha [2, 16] was 0 to 29%. The pest or weed control at 140 g/ha [2, 16] was 0 to 29%, the pest or weed control at 70 g/ha [2, 17] was 0 to 29% and the pest or weed control at 140 g/ha [2, 17] was 0 to 29%. The melting point was 184 °C (dec.).
Molecule Nc1cc(-c2ccc(Cl)c(Cl)c2Cl)nc(C(=O)O)c1Cl [Compound 93] has a pest or weed control at 70 g/ha [1, 3] of 85 to 94%, a pest or weed control at 140 g/ha [1, 3] of 85 to 94% and a pest or weed control at 70 g/ha [1, 4] of 95 to 100%. The pest or weed control at 140 g/ha [1, 4] was 95 to 100%, the pest or weed control at 70 g/ha [1, 5] was 95 to 100% and the pest or weed control at 140 g/ha [1, 5] was 95 to 100%. The pest or weed control at 70 g/ha [1, 6] was 85 to 94%, the pest or weed control at 140 g/ha [1, 6] was 95 to 100% and the pest or weed control at 70 g/ha [1, 7] was 95 to 100%. For the same molecule, the pest or weed control at 140 g/ha [1, 7] was 95 to 100%, the pest or weed control at 70 g/ha [1, 8] was 60 to 74% and the pest or weed control at 140 g/ha [1, 8] was 75 to 84%. For the same molecule, the pest or weed control at 70 g/ha [1, 9] was 60 to 74%, the pest or weed control at 140 g/ha [1, 9] was 0 to 29% and the pest or weed control at 70 g/ha [2, 10] was 0 to 29%. The pest or weed control at 140 g/ha [2, 10] was 0 to 29%, the pest or weed control at 70 g/ha [2, 11] was 60 to 74% and the pest or weed control at 140 g/ha [2, 11] was 60 to 74%. For the same molecule, the pest or weed control at 70 g/ha [2, 12] was 30 to 44%, the pest or weed control at 140 g/ha [2, 12] was 30 to 44% and the pest or weed control at 70 g/ha [2, 13] was 0 to 29%. It also gave a pest or weed control at 140 g/ha [2, 13] of 0 to 29%, a pest or weed control at 70 g/ha [2, 14] of 0 to 29% and a pest or weed control at 140 g/ha [2, 14] of 0 to 29%. It also gave a pest or weed control at 70 g/ha [2, 15] of 0 to 29%, a pest or weed control at 140 g/ha [2, 15] of 0 to 29% and a pest or weed control at 70 g/ha [2, 16] of 45 to 59%. It also gave a pest or weed control at 140 g/ha [2, 16] of 60 to 74%, a pest or weed control at 70 g/ha [2, 17] of 30 to 44% and a pest or weed control at 140 g/ha [2, 17] of 30 to 44%.
